Source: US11298312B2, “Composition comprising niacinamide and picolinamide” (Conopco, Inc., priority 2015, dated 2022)

Tested on: psoriasin secretion
Test: In-vitro generation of AMP (psoriasin) in differentiated NHEK keratinocytes, psoriasin ELISA of culture supernatant
Format: cell-based, Human
Settings: NHEK cells, KGM + 2 mM calcium chloride, 72 h treatment; fold change over control (Example A); concentrations per Table 3
Description: In-Vitro Experiment with Combination of Niacinamide and Picolinamide as Per the Present Invention for Generation of AMP (Psoriasin): The experiment was done using the following protocol: Step 1: Human neonatal primary skin keratinocyte (NHEK) cells was obtained from Lonza®. The experiment was done with the above-mentioned cells with passage between 3 and 4. Then, the cells were seeded (35,000 cells/well) in 24 well plate with keratinocyte growth media (KGM) obtained from Invitrogen®. The plate was then incubated at 37±2° C. in a CO2 incubator for 48 hours. Step 2: After 48 hours of incubation, cell differentiation was induced by replacing media with fresh KGM supplemented with 2 mM calcium chloride solution. This was then followed by incubation at 37±2° C. in a CO2 incubator for 48 hours. Step 3: After that, the cells were treated with different concentration of Niacinamide and picolinamide and their combination at various concentration as per following Table 3 with keratinocyte growth media supplemented with 2 mM calcium chloride solution: Step 4: After the above treatment, cells were again incubated at 37±2° C. in a CO2 incubator for 72 hours Step 5: After 72 h of incubation, cell culture supernatant from each well was collected in a sterile tube. The samples were then stored at −80° C. until used for testing psoriasin secretion by standard ELISA technique using psoriasin ELISA kit obtained from Circulx® (No: CY—8073). In the current experiment, psoriasin was used as a marker for AMP. Step 6: The ELISA method was performed by using 100 μL of cell culture supernatant from each sample. The data is expressed in terms of fold change over control (without Niacinamide and/or picolinamide, Example A).

Row | Compound | Fold change in psoriasin secretion
1 | NC(=O)c1ccccn1 [Example E, picolinamide] | 3.8
2 | NC(=O)c1ccccn1 [Example D, picolinamide] | 3.5
3 | NC(=O)c1cccnc1 [Example C, Niacinamide] | 3.3
4 | NC(=O)c1cccnc1 [Example B, Niacinamide] | 1.8
